The record followed here is ChEMBL document CHEMBL2057116, “A novel tetrahydrobenzoangelicin with dark and photo biological activity” (Bioorg Med Chem, 2012).

One may read the IC50 as the midpoint of a concentration-inhibition curve. Read a low IC50 as inhibition by little substance.

Test [1] relates to HeLa. As to the kind of experiment: Antiproliferative activity against human HeLa cells after 24 hrs by trypan blue dye assay. Type of test: functional, cell-based.
Test [2] deals with A-431. As to the kind of experiment: Antiproliferative activity against human A431 cells incubated for 1 hr with inhibitor followed by UV irradiation measured after 24 hrs by trypan blue dye assay. The format is functional, cell-based. The settings on record: A-431, light or radiation study.
Test [3] relates to A-431. As to the kind of experiment: Antiproliferative activity against human A431 cells after 24 hrs by trypan blue dye assay. Type of test: functional, cell-based. The settings on record: A-431, 24 h.
Test [4] deals with HeLa. Briefly: Antiproliferative activity against human HeLa cells incubated for 1 hr with inhibitor followed by UV irradiation measured after 24 hrs by trypan blue dye assay. Type of test: functional, cell-based. Particulars: light or radiation study.
The test system of test [5] is HeLa. Briefly: Ratio of IC50 for 8-MOP to compound IC50 for human HeLa cells incubated for 1 hr with inhibitor followed by UV irradiation measured after 24 hrs by trypan blue dye assay. Type of test: functional.
Test [6] concerns A-431. Briefly: Ratio of IC50 for 8-MOP to compound IC50 for human A431 cells incubated for 1 hr with inhibitor followed by UV irradiation measured after 24 hrs by trypan blue dye assay. Type of test: functional.
For test [7], the system named is Nucleic Acid. As to the kind of experiment: Binding affinity to salmon testes DNA assessed as change in linear dichroism at compound to DNA ratio of 0.02 to 0.08 by circular dichroism analysis. Type of test: nucleic-acid assay. Particulars: Salmonidae. (Circular dichroism is widely used to follow secondary structure.)
The target in test [8] is DNA topoisomerase 2-alpha (Homo sapiens) (UniProt P11388). Briefly: Inhibition of human recombinant topoisomerase 2alpha-mediated pBR322 DNA relaxation after 60 mins by agarose gel electrophoretic analysis.
Sequence of DNA topoisomerase 2-alpha (Homo sapiens) (P11388 whole entry): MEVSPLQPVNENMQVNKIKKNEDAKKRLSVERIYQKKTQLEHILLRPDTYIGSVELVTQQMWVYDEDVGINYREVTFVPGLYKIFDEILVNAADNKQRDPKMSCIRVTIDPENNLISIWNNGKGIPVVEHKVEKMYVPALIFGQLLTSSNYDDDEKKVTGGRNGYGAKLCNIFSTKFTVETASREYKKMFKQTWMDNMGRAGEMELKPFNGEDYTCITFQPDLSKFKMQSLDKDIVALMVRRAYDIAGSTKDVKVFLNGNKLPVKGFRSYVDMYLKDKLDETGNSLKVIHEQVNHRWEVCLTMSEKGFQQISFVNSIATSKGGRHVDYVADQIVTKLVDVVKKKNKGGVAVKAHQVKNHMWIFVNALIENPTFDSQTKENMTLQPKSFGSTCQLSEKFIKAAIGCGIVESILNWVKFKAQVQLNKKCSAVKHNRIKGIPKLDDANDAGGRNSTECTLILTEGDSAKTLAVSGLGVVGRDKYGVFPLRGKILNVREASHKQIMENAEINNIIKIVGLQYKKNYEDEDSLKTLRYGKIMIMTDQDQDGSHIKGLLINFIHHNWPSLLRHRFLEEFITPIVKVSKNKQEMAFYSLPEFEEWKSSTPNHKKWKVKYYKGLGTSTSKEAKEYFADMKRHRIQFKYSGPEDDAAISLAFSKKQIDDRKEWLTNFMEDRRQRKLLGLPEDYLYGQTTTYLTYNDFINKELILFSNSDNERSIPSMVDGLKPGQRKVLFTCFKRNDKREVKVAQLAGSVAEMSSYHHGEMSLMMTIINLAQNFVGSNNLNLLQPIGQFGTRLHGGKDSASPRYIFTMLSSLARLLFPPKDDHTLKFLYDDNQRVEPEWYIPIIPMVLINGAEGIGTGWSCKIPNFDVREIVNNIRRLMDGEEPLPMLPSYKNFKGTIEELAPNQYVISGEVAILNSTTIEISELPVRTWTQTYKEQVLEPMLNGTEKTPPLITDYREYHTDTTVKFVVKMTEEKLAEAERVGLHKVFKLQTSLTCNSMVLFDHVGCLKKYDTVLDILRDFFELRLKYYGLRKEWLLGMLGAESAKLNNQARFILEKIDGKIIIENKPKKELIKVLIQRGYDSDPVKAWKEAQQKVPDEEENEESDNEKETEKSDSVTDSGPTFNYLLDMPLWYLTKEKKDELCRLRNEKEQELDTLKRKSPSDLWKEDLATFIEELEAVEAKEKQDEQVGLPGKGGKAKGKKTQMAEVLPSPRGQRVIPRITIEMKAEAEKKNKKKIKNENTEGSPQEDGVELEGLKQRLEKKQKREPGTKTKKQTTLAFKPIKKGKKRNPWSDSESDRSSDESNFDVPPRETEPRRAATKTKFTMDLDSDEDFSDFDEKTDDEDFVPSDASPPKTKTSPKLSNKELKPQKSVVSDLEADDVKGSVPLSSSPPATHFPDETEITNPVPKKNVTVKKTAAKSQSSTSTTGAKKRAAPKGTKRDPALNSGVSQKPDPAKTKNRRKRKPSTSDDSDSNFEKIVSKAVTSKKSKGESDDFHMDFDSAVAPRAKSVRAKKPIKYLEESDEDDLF
Test [9] has the same target. As to the kind of experiment: Inhibition of human recombinant topoisomerase 2alpha-mediated pBR322 DNA relaxation at 5 uM after 60 mins by agarose gel electrophoretic analysis.
For test [10] the target is unchanged. Briefly: Inhibition of human recombinant topoisomerase 2alpha-mediated pBR322 DNA relaxation at 10 uM after 60 mins by agarose gel electrophoretic analysis.
Test [11] shares this target. As to the kind of experiment: Inhibition of human recombinant topoisomerase 2alpha-mediated pBR322 DNA complex formation at 10 uM after 60 mins by agarose gel electrophoresis.
Test [12] relates to Nucleic Acid. As to the kind of experiment: Photoaddition to salmon testes DNA assessed as thymine-photoadduct formation by UV-Vis spectrophotometric analysis. The format is nucleic-acid assay. Particulars: Salmonidae.
Test [13] deals with DNA topoisomerase 2-alpha (Homo sapiens) (UniProt P11388). As to the kind of experiment: Inhibition of human recombinant topoisomerase 2alpha-mediated pBR322 DNA relaxation at 8 uM after 60 mins by agarose gel electrophoretic analysis.
Test [14] shares this target. As to the kind of experiment: Inhibition of human recombinant topoisomerase 2alpha-mediated pBR322 DNA complex formation at 8 uM after 60 mins by agarose gel electrophoresis.

The source made the active and inactive calls. No cut-off for these calls is given here.

Turning to `COc1c2occc2cc2ccc(=O)oc12` [METHOXSALEN], the IC50 in the test with HeLa [1] is over 30 µM; in the test with A-431 [2] it was 25 µM; in the test with A-431 [3], over 30 µM.
For `Cc1cc(=O)oc2c1c(OCCCN(C)C)cc1oc3c(c12)CCCC3`, the half-maximal inhibitory concentration (IC50) in the test on HeLa [4] stood at 0.4 µM; with HeLa [1], 7.2 µM; in the test on A-431 [2], 2 µM; in the test on A-431 [3], 6.7 µM. Also, the “Ratio IC50” value in the test with HeLa [5] and in the test with A-431 [6] was 5.9 each time. The outcome in the test on Nucleic Acid [7] and in the test on Nucleic Acid [12] was Active. The inhibition result in test [8] is “Dose-dependent effect”. Also, the inhibition entry in test [9] and in [10] was “Active” in each case. For the same compound, the inhibition result in [11] is “inactive”.
Turning to `COc1cc(NS(C)(=O)=O)ccc1Nc1c2ccccc2nc2ccccc12`, the inhibition entry in test [13] and in test [14] was “Active” throughout.
For the compound `Cc1cc(=O)oc2c1c(OCCCN(C)C)cc1oc3ccccc3c12`, the half-maximal inhibitory concentration (IC50) in the test on HeLa [4] is 1.4 µM; in the test on HeLa [1] it was over 20 µM; in the test with A-431 [2], 4.2 µM; in the test with A-431 [3] it was over 20 µM. Besides, the “Ratio IC50” value in the test on HeLa [5] and with A-431 [6] was 5.9 each time.
